How the values were obtained:
hMC5 [1] = molecular target: T1, hMC5 (Homo sapiens, UniProt P33032); test: Cyclic AMP bioassay (ECL), CHO-K1 cells expressing hMC5; type: cell-based; conditions: intracellular cAMP
T1 construct: expressed in transfected cells; host or cells: CHO-K1
Description: (§3) Intracellular cyclic AMP (cAMP) levels were determined by an electrochemiluminescence (ECL) assay (Meso Scale Discovery®, Gaithersburg, Md.; referred to hereinafter as “MSD”). […] Transgenic CHO-K1 cells stably expressing hMC receptor subtypes 1, 3, 4 or 5 were dispensed at a density of approximately 7,000 cells/well in 384-well Multi-Array® plates (MSD) containing integrated carbon electrodes and coated with anti-cAMP antibody. Increasing concentrations of the test compounds were added and the cells were incubated for approximately 40 minutes at approximately 37° C. […] At the end of the second incubation period read buffer (Tris-buffered solution containing an ECL co-reactant and Triton X-100 at ph 7.8) was added and the cAMP levels in the cell lysates were immediately determined by ECL detection with a Sector Imager 6000 Reader® (MSD). Data was analyzed using a computer-assisted non-linear regression analysis (XL fit; IDBS) and reported as either an EC50 value or a Kb value.

hMC4 [2] = molecular target: T2, hMC4 (Homo sapiens, UniProt P32245); test: Cyclic AMP bioassay (ECL), CHO-K1 cells expressing hMC4; type: cell-based; conditions: intracellular cAMP
T2 construct: expressed in transfected cells; host or cells: CHO-K1
T2 sequence (P32245 whole entry): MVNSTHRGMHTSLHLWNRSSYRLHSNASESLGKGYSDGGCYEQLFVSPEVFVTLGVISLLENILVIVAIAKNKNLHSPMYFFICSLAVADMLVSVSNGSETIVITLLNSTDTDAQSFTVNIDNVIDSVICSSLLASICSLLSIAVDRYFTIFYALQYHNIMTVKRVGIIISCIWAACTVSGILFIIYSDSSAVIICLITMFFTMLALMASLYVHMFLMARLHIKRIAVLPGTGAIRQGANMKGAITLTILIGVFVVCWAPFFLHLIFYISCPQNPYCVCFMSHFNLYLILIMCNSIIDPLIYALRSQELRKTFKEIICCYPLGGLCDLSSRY
Description: as §3

hMC1 [3] = molecular target: T3, hMC1 (Homo sapiens, UniProt Q01726); test: Cyclic AMP bioassay (ECL), CHO-K1 cells expressing hMC1; type: cell-based; conditions: intracellular cAMP
T3 construct: expressed in transfected cells; host or cells: CHO-K1
T3 sequence (Q01726 whole entry): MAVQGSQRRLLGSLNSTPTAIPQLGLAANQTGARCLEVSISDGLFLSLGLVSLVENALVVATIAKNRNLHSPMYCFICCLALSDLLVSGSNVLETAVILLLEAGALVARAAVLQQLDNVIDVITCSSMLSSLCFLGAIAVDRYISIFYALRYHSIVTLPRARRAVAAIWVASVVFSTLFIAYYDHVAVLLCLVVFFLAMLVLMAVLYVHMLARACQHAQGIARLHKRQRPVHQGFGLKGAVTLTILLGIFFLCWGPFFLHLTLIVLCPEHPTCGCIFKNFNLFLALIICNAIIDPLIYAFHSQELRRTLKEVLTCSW
Description: as §3

hMC3 [4] = molecular target: T4, hMC3 (Homo sapiens, UniProt P41968); test: Cyclic AMP bioassay (ECL), CHO-K1 cells expressing hMC3; type: cell-based; conditions: intracellular cAMP
T4 construct: expressed in transfected cells; host or cells: CHO-K1
T4 sequence (P41968 whole entry): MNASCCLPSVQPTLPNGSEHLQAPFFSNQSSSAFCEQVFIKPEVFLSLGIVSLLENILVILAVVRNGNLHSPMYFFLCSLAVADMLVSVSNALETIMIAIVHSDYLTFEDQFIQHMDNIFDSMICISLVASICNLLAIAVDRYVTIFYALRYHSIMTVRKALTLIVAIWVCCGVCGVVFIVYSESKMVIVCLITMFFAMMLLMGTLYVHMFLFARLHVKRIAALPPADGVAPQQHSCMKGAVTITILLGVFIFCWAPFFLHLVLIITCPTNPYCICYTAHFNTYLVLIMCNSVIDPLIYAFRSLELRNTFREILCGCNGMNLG
Description: as §3

hMC4 [5] = molecular target: T2, hMC4; test: Radioligand binding assay, [125I]-NDP-α-MSH, CHO-K1 membranes
Description: (§1) Cellular membranes used for the in vitro receptor binding assays were obtained from transgenic CHO-K1 cells stably expressing hMC-R receptor subtypes 1, 3, 4 or 5. […] The pellets were re-suspended in the same buffer and centrifuged at 50,000 g for 10 minutes at approximately 4° C. The washed pellets containing the cellular membranes were stored at approximately −80° C.
(§2) Filters were washed three times with 50 mM Tris-HCl at pH 7.4 at a temperature of approximately 0-4° C. and then assayed for radioactivity using a Packard Topcount® scintillation counter. Binding data were analyzed by computer-assisted non-linear regression analysis (XL fit; IDBS).

hMC3 [6] = molecular target: T4, hMC3; test: as above
Description: as §1, §2

hMC1 [7] = molecular target: T3, hMC1; test: as above
Description: as §1, §2

hMC5 [8] = molecular target: T1, hMC5; test: as above
Description: as §1, §2

T1 sequence (P33032 whole entry): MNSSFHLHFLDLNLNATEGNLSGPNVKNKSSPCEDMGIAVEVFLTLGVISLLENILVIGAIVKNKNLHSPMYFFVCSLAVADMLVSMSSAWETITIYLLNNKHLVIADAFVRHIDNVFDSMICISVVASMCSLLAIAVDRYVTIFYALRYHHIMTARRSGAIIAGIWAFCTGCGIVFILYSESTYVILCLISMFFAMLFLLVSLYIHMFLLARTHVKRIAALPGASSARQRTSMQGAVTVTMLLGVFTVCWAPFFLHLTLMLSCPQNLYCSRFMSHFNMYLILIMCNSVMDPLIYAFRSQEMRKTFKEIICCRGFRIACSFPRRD

EC50 (hMC5 [1]) [nM]	EC50 (hMC4 [2]) [nM]	EC50 (hMC1 [3]) [nM]	EC50 (hMC3 [4]) [nM]	Ki (hMC4 [5]) [nM]	Ki (hMC3 [6]) [nM]	Ki (hMC1 [7]) [nM]	Ki (hMC5 [8]) [nM]	SMILES
2710	0.16	18	17.1	2.95	124	9.49	2260	N=C(N)NCCC[C@@H]1NC(=O)[C@@H](Cc2ccccc2)NC(=O)[C@H](Cc2cnc[nH]2)NC(=O)[C@H](CCC(=O)O)NC(=O)[C@@H](NC(=O)CN2C(=O)N[C@H](CCCNC(=N)N)C2=O)CSSC[C@@H](C(N)=O)NC(=O)[C@H](Cc2c[nH]c3ccccc23)NC1=O [Hydantoin(C(O)-(D-Arg-Gly))-cyclo(Cys-Glu-His-D-Phe-Arg-Trp-Cys)-NH2]
> 10000								CCCC[C@@H]1NC(=O)N(CC(=O)N[C@H]2CSSC[C@@H](C(N)=O)NC(=O)[C@H](Cc3c[nH]c4ccccc34)NC(=O)[C@H](CCCNC(=N)N)NC(=O)[C@@H](Cc3ccccc3)NC(=O)[C@H](Cc3cnc[nH]3)NC(=O)[C@H](CCC(=O)O)NC2=O)C1=O [Hydantoin(C(O)-(Nle-Gly))-cyclo(Cys-Glu-His-D-Phe-Arg-Trp-Cys)-NH2]
						200		N=C(N)NCCC[C@@H]1NC(=O)[C@@H](Cc2ccc3ccccc3c2)NC(=O)[C@H](Cc2cnc[nH]2)N2C(=O)N[C@@H](CC(=O)NCCCC[C@@H](C(N)=O)NC(=O)[C@H](Cc3c[nH]c4ccccc34)NC1=O)C2=O [cyclo[Hydantoin(C(O)-(Asp-His))-D-2-Nal-Arg-Trp-Lys]-NH2]
							> 10000	C[C@@H]1C(=O)N[C@@H](Cc2cnc[nH]2)C(=O)N[C@H](Cc2ccccc2)C(=O)N[C@@H](CCCNC(=N)N)C(=O)N[C@@H](Cc2c[nH]c3ccccc23)C(=O)N[C@H](C(N)=O)CNC(=O)C[C@@H]2NC(=O)N1C2=O [cyclo[Hydantoin(C(O)-(Asp-D-Ala))-His-D-Phe-Arg-Trp-Dap]-NH2]
				420	1920	7570	2880	N=C(N)NCCC[C@@H]1NC(=O)[C@@H](Cc2ccc3ccccc3c2)NC(=O)C2(CC2)N2C(=O)N[C@@H](CC(=O)NCCCC[C@@H](C(N)=O)NC(=O)[C@H](Cc3c[nH]c4ccccc34)NC1=O)C2=O [cyclo[Hydantoin(C(O)-(Asp-A3c))-D-2-Nal-Arg-Trp-Lys]-NH2]
	4.94		39.2	52.4	2840	60.4		C[C@@H]1C(=O)N[C@@H](Cc2cnc[nH]2)C(=O)N[C@H](Cc2ccccc2)C(=O)N[C@@H](CCCNC(=N)N)C(=O)N[C@@H](Cc2c[nH]c3ccccc23)C(=O)N[C@H](C(N)=O)CCCNC(=O)CC[C@@H]2NC(=O)N1C2=O [cyclo[Hydantoin(C(O)-(Glu-D-Ala))-His-D-Phe-Arg-Trp-Orn]-NH2]
> 10000								N=C(N)NCCC[C@@H]1NC(=O)[C@@H](Cc2ccccc2)NC(=O)[C@H](Cc2cnc[nH]2)NC(=O)[C@H](CCC(=O)O)NC(=O)[C@@H](NC(=O)CN2C(=O)CNC2=O)CSSC[C@@H](C(N)=O)NC(=O)[C@H](Cc2c[nH]c3ccccc23)NC1=O [Hydantoin(C(O)-(Gly-Gly))-cyclo(Cys-Glu-His-D-Phe-Arg-Trp-Cys)-NH2]
	3.62		22.3	45.2	1920	72.6		C[C@@H]1C(=O)N[C@@H](Cc2cnc[nH]2)C(=O)N[C@H](Cc2ccccc2)C(=O)N[C@@H](CCCNC(=N)N)C(=O)N[C@@H](Cc2c[nH]c3ccccc23)C(=O)N[C@H](C(N)=O)CCCCNC(=O)CC[C@@H]2NC(=O)N1C2=O [cyclo[Hydantoin(C(O)-(Glu-D-Ala))-His-D-Phe-Arg-Trp-Lys]-NH2]
	0.182	56.7	18.2	4.97	863	16.4		C[C@@H]1C(=O)N[C@@H](Cc2cnc[nH]2)C(=O)N[C@H](Cc2ccccc2)C(=O)N[C@@H](CCCNC(=N)N)C(=O)N[C@@H](Cc2c[nH]c3ccccc23)C(=O)N[C@H](C(N)=O)CNC(=O)CC[C@@H]2NC(=O)N1C2=O [cyclo[Hydantoin(C(O)-(Glu-D-Ala))-His-D-Phe-Arg-Trp-Dap]-NH2]
1780	0.576	14.5	21.8					N=C(N)NCCC[C@@H]1NC(=O)[C@@H](Cc2ccccc2)NC(=O)[C@H](Cc2cnc[nH]2)NC(=O)[C@H](CCC(=O)O)NC(=O)[C@@H](N2C(=O)CNC2=O)CSSC[C@@H](C(N)=O)NC(=O)[C@H](Cc2c[nH]c3ccccc23)NC1=O [cyclo[Hydantoin(C(O)-(Gly-Cys))-Glu-His-D-Phe-Arg-Trp-Cys]-NH2]
9300	4.5	56.6	88.6	7.81	576	37.7	6400	C[C@@H]1C(=O)N[C@@H](Cc2cnc[nH]2)C(=O)N[C@H](Cc2ccccc2)C(=O)N[C@@H](CCCNC(=N)N)C(=O)N[C@@H](Cc2c[nH]c3ccccc23)C(=O)N[C@H](C(N)=O)CCCNC(=O)C[C@@H]2NC(=O)N1C2=O [cyclo[Hydantoin(C(O)-(Asp-D-Ala))-His-D-Phe-Arg-Trp-Orn]-NH2]
7440	0.125	12.9	10.3	1.77	78	4.3	4540	N=C(N)NCCC[C@@H]1NC(=O)[C@@H](Cc2ccccc2)NC(=O)[C@H](Cc2cnc[nH]2)NC(=O)[C@H](CCC(=O)O)NC(=O)[C@@H](NC(=O)[C@@H](CCCNC(=N)N)N2C(=O)CNC2=O)CSSC[C@@H](C(N)=O)NC(=O)[C@H](Cc2c[nH]c3ccccc23)NC1=O [Hydantoin(C(O)-(Gly-D-Arg))-cyclo(Cys-Glu-His-D-Phe-Arg-Trp-Cys)-NH2]

Second part, the compound before the results:

SMILES	EC50 (hMC5 [1]) [nM]	EC50 (hMC4 [2]) [nM]	EC50 (hMC1 [3]) [nM]	EC50 (hMC3 [4]) [nM]	Ki (hMC4 [5]) [nM]	Ki (hMC3 [6]) [nM]	Ki (hMC1 [7]) [nM]	Ki (hMC5 [8]) [nM]
N=C(N)NCCC[C@@H]1NC(=O)[C@@H](Cc2ccc3ccccc3c2)NC(=O)C2(CCCCC2)N2C(=O)N[C@@H](CC(=O)NCCCC[C@@H](C(N)=O)NC(=O)[C@H](Cc3c[nH]c4ccccc34)NC1=O)C2=O [cyclo[Hydantoin(C(O)-(Asp-A6c))-D-2-Nal-Arg-Trp-Lys]-NH2]					16.5	1480	2170	451
CC[C@H](C)[C@@H]1NC(=O)N([C@H]2CSSC[C@@H](C(N)=O)NC(=O)[C@H](Cc3c[nH]c4ccccc34)NC(=O)[C@H](CCCNC(=N)N)NC(=O)[C@@H](Cc3ccccc3)NC(=O)[C@H](Cc3cnc[nH]3)NC(=O)[C@@H](C)NC2=O)C1=O [cyclo[Hydantoin(C(O)-(Ile-Cys))-D-Ala-His-D-Phe-Arg-Trp-Cys]-NH2]								> 10000
C[C@H]1NC(=O)[C@@H](NC(=O)CN2C(=O)N[C@H](C)C2=O)CSSC[C@@H](C(N)=O)NC(=O)[C@H](Cc2c[nH]c3ccccc23)NC(=O)[C@H](CCCNC(=N)N)NC(=O)[C@@H](Cc2ccccc2)NC(=O)[C@H](Cc2cnc[nH]2)NC1=O [Hydantoin(C(O)-(D-Ala-Gly))-cyclo(Cys-D-Ala-His-D-Phe-Arg-Trp-Cys)-NH2]	355	0.309	4.7	2.22				
N=C(N)NCCC[C@@H]1NC(=O)[C@@H](Cc2ccc3ccccc3c2)NC(=O)C2(CCNCC2)N2C(=O)N[C@@H](CC(=O)NCCCC[C@@H](C(N)=O)NC(=O)[C@H](Cc3c[nH]c4ccccc34)NC1=O)C2=O [cyclo[Hydantoin(C(O)-(Asp-Apc))-D-2-Nal-Arg-Trp-Lys]-NH2]					266	2760	1280	
C[C@H]1NC(=O)[C@@H](NC(=O)CN2C(=O)N[C@H](CCCNC(=N)N)C2=O)CSSC[C@@H](C(N)=O)NC(=O)[C@H](Cc2c[nH]c3ccccc23)NC(=O)[C@H](CCCNC(=N)N)NC(=O)[C@@H](Cc2ccccc2)NC(=O)[C@H](Cc2cnc[nH]2)NC1=O [Hydantoin(C(O)-(D-Arg-Gly))-cyclo(Cys-D-Ala-His-D-Phe-Arg-Trp-Cys)-NH2]	3950	0.513	11.5	23.2				
C[C@H]1NC(=O)[C@@H](NC(=O)[C@@H](CCCNC(=N)N)N2C(=O)CNC2=O)CSSC[C@@H](C(N)=O)NC(=O)[C@H](Cc2c[nH]c3ccccc23)NC(=O)[C@H](CCCNC(=N)N)NC(=O)[C@@H](Cc2ccccc2)NC(=O)[C@H](Cc2cnc[nH]2)NC1=O [Hydantoin(C(O)-(Gly-D-Arg))-cyclo(Cys-D-Ala-His-D-Phe-Arg-Trp-Cys)-NH2]	9840	0.435	7.53	11.6				
CCCC[C@@H](C(=O)N[C@H]1CSSC[C@@H](C(N)=O)NC(=O)[C@H](Cc2c[nH]c3ccccc23)NC(=O)[C@H](CCCNC(=N)N)NC(=O)[C@@H](Cc2ccccc2)NC(=O)[C@H](Cc2cnc[nH]2)NC(=O)[C@@H](C)NC1=O)N1C(=O)N[C@H](C)C1=O [Hydantoin(C(O)-(D-Ala-Nle))-cyclo(Cys-D-Ala-His-D-Phe-Arg-Trp-Cys)-NH2]		1.47		2.56				
N=C(N)NCCC[C@@H]1NC(=O)[C@@H](Cc2ccc3ccccc3c2)NC(=O)C2(Cc3ccccc3C2)N2C(=O)N[C@@H](CC(=O)NCCCC[C@@H](C(N)=O)NC(=O)[C@H](Cc3c[nH]c4ccccc34)NC1=O)C2=O [cyclo[Hydantoin(C(O)-(Asp-Aic))-D-2-Nal-Arg-Trp-Lys]-NH2]					35.8	2630	9030	1160
N=C(N)NCCC[C@@H]1NC(=O)[C@@H](Cc2ccc3ccccc3c2)NC(=O)C2(CCCC2)N2C(=O)N[C@@H](CC(=O)NCCCC[C@@H](C(N)=O)NC(=O)[C@H](Cc3c[nH]c4ccccc34)NC1=O)C2=O [cyclo[Hydantoin(C(O)-(Asp-A5c))-D-2-Nal-Arg-Trp-Lys]-NH2]						2390	9940	

Source: patent publication US8563000B2, “Melanocortin receptor ligands modified with hydantoin” (Ipsen Pharma S.A.S., priority 2007, dated 2013)
